Measured values reported in the supplement of paper PMC11451515.

Tests used:
Experiment in all cases: AUC of viability dose-response curve (% viability x log10 dose units); higher = less sensitive
Details in all cases: 48 h
P12-Ichikawa = system: P12-Ichikawa
Outline: (§1)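 Leukemia cells adapted to each medium were seeded at 500 or 1000 cells/well in 1536-well plates and dosed with library compounds in DMSO at 11 threefold doses from 47 μM to 0.79 nM for 48 h at 37°C. CellTiter-Glo One luminescence was normalised per plate to DMSO and cell-free wells, then fitted with a four-parameter log-logistic model over log10 doses. Area under the curve was taken from this fit by the trapezoidal rule, with curves above full viability scaled and curves failing quality control removed.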

SEM cells = system: SEM cells
Outline: as §1

NOMO1 = system: NOMO1
Outline: as §1

[1] = RPMI 5 mM glucose + 10% dialyzed FBS

SMILES | AUC of viability dose-response curve (P12-Ichikawa; HPLM + 10% dialyzed FBS) | AUC of viability dose-response curve (P12-Ichikawa; RPMI 5 mM glucose + 10% FBS) | AUC of viability dose-response curve (P12-Ichikawa; [1]) | AUC of viability dose-response curve (SEM cells; HPLM + 10% dialyzed FBS) | AUC of viability dose-response curve (SEM cells; RPMI 5 mM glucose + 10% FBS) | AUC of viability dose-response curve (SEM cells; [1]) | AUC of viability dose-response curve (NOMO1; HPLM + 10% dialyzed FBS) | AUC of viability dose-response curve (NOMO1; RPMI 5 mM glucose + 10% FBS) | AUC of viability dose-response curve (NOMO1; [1])
CCC(=O)O[C@@]1([C@@H](C)C[C@H]2[C@@H]3CCC/4=C/C(=O)/C=C\[C@]4(C)[C@@]3(F)[C@@H](O)C[C@]12C)C(=O)CCl | 325 | 254 | 251 | 339 | 336 | 308 | 411 | 467 | 429
Cc1ccc(-n2nc(C(C)(C)C)cc2NC(=O)Nc2ccc(OCCN3CCOCC3)c3ccccc23)cc1 | 477 | 463 | 473 | 403 | 399 | 398 | 474 | 460 | 471
C[C@H](NC(=O)C(=O)Nc1ccccc1C(C)(C)C)C(=O)N[C@@H](CC(=O)O)C(=O)COc1c(F)c(F)cc(F)c1F | 440 | 427 | 425 | 395 | 391 | 390 | 428 | 445 | 450
O=C(O)c1ccccc1C(=O)Nc1ccc(-c2ccccc2)cc1 | 468 | 461 | 469 | 449 | 457 | 456 | 462 | 463 | 460
COc1cc2ncnc(-n3nc(-c4ccccn4)nc3N)c2cc1OC | 447 | 436 | 413 | 360 | 326 | 317 | 437 | 406 | 418
CC[C@H]1OC(=O)[C@H](C)[C@@H](O[C@H]2C[C@@](C)(OC)[C@@H](O)[C@H](C)O2)[C@H](C)[C@@H](O[C@@H]2O[C@@H](C)C[C@H](N(C)C)[C@H]2O)[C@](C)(O)C[C@@H](C)C(=O)[C@H](C)[C@@H](O)[C@]1(C)O | 402 | 402 | 411 | 401 | 418 | 400 | 423 | 403 | 429
NC(=O)c1ccc(-c2nc(-c3ccc4c(c3)OCCO4)c(-c3ccccn3)[nH]2)cc1 | 470 | 459 | 473 | 451 | 462 | 416 | 449 | 460 | 473
COC[C@H](NC(=O)c1cnc(C)s1)C(=O)N[C@@H](COC)C(=O)N[C@@H](Cc1ccccc1)C(=O)[C@@]1(C)CO1 | 251 | 245 | 231 | 214 | 213 | 199 | 265 | 273 | 271
CCNC(=O)C[C@@H]1\N=C(C2=CC=C(Cl)C=C2)/C3=C(C=CC(=C3)OC)[N]4C(=NN=C14)C | 395 | 396 | 388 | 311 | 299 | 303 | 373 | 392 | 388
CC1SC/2=C(C(O)=O)/C(=O)C3=CC(=C(C=C3N12)N4CCN(CC4)C\C5=C(C)\OC(=O)O5)F (configuration not stated) | 437 | 449 | 449 | 472 | 442 | 449 | 413 | 456 | 443
C[C@@H]1C[C@H]2[C@@H]3\C=C(C)/C4=C/C5=C(C[C@]4(C)[C@H]3[C@@H](O)C[C@]2(C)[C@@]1(O)C(=O)COC(C)=O)C=N[N]5C6=CC=CC=C6 | 323 | 264 | 251 | 304 | 277 | 258 | 442 | 411 | 449
CC(C)(C)OC(=O)CN(Cc1ccc(Cl)cc1)Cc1ccc([N+](=O)[O-])s1 | 456 | 443 | 429 | 449 | 454 | 436 | 441 | 436 | 464
Cl.c1cnc2cc3c(cc2n1)C1CNCC3C1 | 474 | 444 | 467 | 458 | 444 | 461 | 465 | 470 | 467
CCOC(=O)Nc1ccc(NCc2ccc(F)cc2)cc1N | 452 | 464 | 451 | 459 | 467 | 470 | 424 | 448 | 445
O=C1c2c(O)cccc2[C@H]([C@@H]2O[C@H](CO)[C@@H](O)[C@H](O)[C@H]2O)c2cc(CO)cc(O)c21 | 467 | 467 | 465 | 449 | 431 | 441 | 455 | 404 | 431
CO/N=C(/C(=O)N[C@@H]1C(=O)N2C(C(=O)O)=C(Cn3ccc(=N)n3CCO)CS[C@H]12)c1csc(N)n1 | 460 | 452 | 463 | 413 | 461 | 467 | 421 | 446 | 459
CN1C(=O)\C(=C/C(=C1/NC2=C(F)C=C(I)C=C2)C(=O)NOCCO)C | 441 | 423 | 451 | 398 | 403 | 342 | 257 | 281 | 253
Cc1cc(O)c2c3c4c(cc(O)c13)C(C)(C)C(=O)c1c(O)cc(O)c(c1-4)C2=O | 460 | 457 | 454 | 457 | 465 | 450 | 450 | 451 | 462
COC(=O)N1CCN(Cc2cccc(NC(=O)Nc3ccc(C)nc3)c2F)CC1 | 458 | 434 | 408 | 470 | 464 | 448 | 418 | 434 | 434
NC(=O)N1c2ccccc2CC(=O)c2ccccc21 | 461 | 456 | 464 | 466 | 427 | 389 | 408 | 444 | 466
COc1ccc(CCN2CCN(CCCc3ccccc3)CC2)cc1OC | 466 | 472 | 473 | 461 | 465 | 457 | 459 | 444 | 439
ClC1=CC=C(CCCOC/2=N/NC(=O)C(=C2NCC3=CN=CC=C3)/Br)C=C1 | 387 | 430 | 382 | 323 | 358 | 391 | 344 | 390 | 392

SMILES | AUC of viability dose-response curve (P12-Ichikawa; HPLM + 10% dialyzed FBS) | AUC of viability dose-response curve (P12-Ichikawa; RPMI 5 mM glucose + 10% FBS) | AUC of viability dose-response curve (P12-Ichikawa; [1]) | AUC of viability dose-response curve (SEM cells; HPLM + 10% dialyzed FBS) | AUC of viability dose-response curve (SEM cells; RPMI 5 mM glucose + 10% FBS) | AUC of viability dose-response curve (SEM cells; [1]) | AUC of viability dose-response curve (NOMO1; HPLM + 10% dialyzed FBS) | AUC of viability dose-response curve (NOMO1; RPMI 5 mM glucose + 10% FBS) | AUC of viability dose-response curve (NOMO1; [1])
C#Cc1cccc(Nc2ncnc3cc(OCCOC)c(OCCO)cc23)c1 | 451 | 453 | 451 | 431 | 400 | 417 | 372 | 455 | 455
OC[C@H]1O[C@@H](Oc2ccc(O)cc2)[C@H](O)[C@@H](O)[C@@H]1O | 461 | 421 | 426 | 376 | 390 | 397 | 461 | 426 | 404
O=C(O)[C@H](Cc1c[nH]c2ccccc12)N1C(=O)c2ccccc2C1=O | 474 | 462 | 460 | 445 | 440 | 405 | 440 | 426 | 470
CNC(=O)[C@H](Cc1ccccc1)NC(=O)[C@H](CC(C)C)[C@H](CSc1cccs1)C(=O)NO | 409 | 373 | 386 | 405 | 389 | 340 | 433 | 402 | 415
CC(C)(C)/[N+]([O-])=C/c1ccc([S+](=O)([O-])[O][Na])cc1[S+](=O)([O-])[O][Na] | 461 | 451 | 469 | 438 | 461 | 453 | 451 | 445 | 459
COc1ccc(Cc2nccc3cc(OC)c(OC)cc23)cc1OC | 462 | 466 | 458 | 469 | 460 | 465 | 453 | 458 | 454
COc1cc(N2CCC(C(N)=O)CC2)ccc1Nc1nc(N)c(Cl)c(Nc2ccccc2[S+](=O)([O-])C(C)C)n1 | 445 | 421 | 410 | 360 | 375 | 350 | 381 | 393 | 372
Cc1ccc(C(C)(O)c2nc3ccccc3s2)c(C)c1 (configuration not stated) | 412 | 415 | 426 | 386 | 387 | 386 | 427 | 433 | 457
Clc1cccc(-c2nnnn2Cc2cccnc2)c1Cl | 397 | 385 | 382 | 359 | 348 | 375 | 362 | 365 | 357
CCCCCCCCCCCC(CC1OC(=O)C1CCCCCC)OC(=O)C(CC(C)C)NC=O (configuration not stated) | 443 | 440 | 443 | 407 | 343 | 391 | 452 | 461 | 456
O=C1CSC(=O)N1C(CCc1ccncc1)COc1ccc(-c2cccc([N+](=O)[O-])c2)cc1 (configuration not stated) | 447 | 394 | 436 | 427 | 433 | 467 | 444 | 446 | 454
Cc1ccc(NC(=O)c2ccc(CN3CCN(C)CC3)cc2)cc1Nc1nccc(-c2cccnc2)n1 | 460 | 470 | 477 | 465 | 468 | 467 | 477 | 459 | 454
Clc1ccc(C2(c3ccc(-c4cn[nH]c4)cc3)CCNCC2)cc1 | 419 | 369 | 390 | 384 | 445 | 388 | 427 | 389 | 395
C[C@]\1(CCS\C(=N1)N)C2=CC(=C(F)C=C2F)C3=CN=CN=C3 | 411 | 420 | 435 | 441 | 390 | 429 | 378 | 359 | 383
Fc1cc(-c2cccc3ncc(-c4cnn(C5CCNCC5)c4)nc23)cc(F)c1CN1CCOCC1 | 407 | 423 | 412 | 379 | 378 | 385 | 378 | 409 | 412
C#CCN(C)[C@H](C)Cc1ccccc1 | 431 | 413 | 402 | 401 | 410 | 407 | 401 | 385 | 410
COc1cc2c(Nc3ccc(NC(=O)c4ccccc4)cc3)ncnc2cc1OCCCN1CCOCC1 | 383 | 390 | 386 | 396 | 389 | 385 | 456 | 417 | 425
CC#C[C@]1(O)CC[C@H]2[C@@H]/3CCC/4=C/C(=O)CCC4=C3[C@H](C[C@]12C)C5=CC=C(C=C5)N(C)C | 456 | 422 | 411 | 384 | 426 | 432 | 399 | 364 | 370
C1Cc2[nH]nc(-c3nn[nH]n3)c2C1 | 470 | 458 | 472 | 464 | 438 | 445 | 460 | 460 | 456
CN[C@H](CC(C)C)C(=O)N[C@H]1C(=O)N[C@@H](CC(N)=O)C(=O)N[C@H]2C(=O)N[C@H]3C(=O)N[C@H](C(=O)N[C@H](C(=O)O)c4cc(O)cc(O)c4-c4cc3ccc4O)[C@H](O)c3ccc(c(Cl)c3)Oc3cc2cc(c3O[C@@H]2O[C@H](CO)[C@@H](O)[C@H](O)[C@H]2O[C@H]2C[C@](C)(N)[C@H](O)[C@H](C)O2)Oc2ccc(cc2Cl)[C@H]1O | 457 | 462 | 454 | 463 | 458 | 473 | 439 | 468 | 475
N[C@@H](C(=O)N[C@H]1[C@H]2SC\C(=C(/N2C1=O)C(O)=O)Cl)C3=CC=CC=C3 | 462 | 457 | 466 | 436 | 465 | 468 | 462 | 430 | 441
